US12162890B2 (Novartis AG, priority 2015, dated 2024)

Target: HEK293 cells with stable expression of the GRIN1 gene and tetracycline-inducible expression of the GRIN2B gene (NMDA receptor, NR2B) (Homo sapiens, UniProt Q13224)
Test: Fluo-8 Ca2+ flux assay: reversal of Ro 25-6981-mediated suppression of the Ca2+ response to co-agonist (glutamate/glycine); note: test concentration or dose not given here
Assay type: cell-based
Settings: reversal of the Ro 25-6981 suppression of the Ca2+ response to co-agonist (glutamate/glycine)

Chain of HEK293 cells with stable expression of the GRIN1 gene and tetracycline-inducible expression of the GRIN2B gene (NMDA receptor, NR2B) (Q13224 27-1484, other chains not shown): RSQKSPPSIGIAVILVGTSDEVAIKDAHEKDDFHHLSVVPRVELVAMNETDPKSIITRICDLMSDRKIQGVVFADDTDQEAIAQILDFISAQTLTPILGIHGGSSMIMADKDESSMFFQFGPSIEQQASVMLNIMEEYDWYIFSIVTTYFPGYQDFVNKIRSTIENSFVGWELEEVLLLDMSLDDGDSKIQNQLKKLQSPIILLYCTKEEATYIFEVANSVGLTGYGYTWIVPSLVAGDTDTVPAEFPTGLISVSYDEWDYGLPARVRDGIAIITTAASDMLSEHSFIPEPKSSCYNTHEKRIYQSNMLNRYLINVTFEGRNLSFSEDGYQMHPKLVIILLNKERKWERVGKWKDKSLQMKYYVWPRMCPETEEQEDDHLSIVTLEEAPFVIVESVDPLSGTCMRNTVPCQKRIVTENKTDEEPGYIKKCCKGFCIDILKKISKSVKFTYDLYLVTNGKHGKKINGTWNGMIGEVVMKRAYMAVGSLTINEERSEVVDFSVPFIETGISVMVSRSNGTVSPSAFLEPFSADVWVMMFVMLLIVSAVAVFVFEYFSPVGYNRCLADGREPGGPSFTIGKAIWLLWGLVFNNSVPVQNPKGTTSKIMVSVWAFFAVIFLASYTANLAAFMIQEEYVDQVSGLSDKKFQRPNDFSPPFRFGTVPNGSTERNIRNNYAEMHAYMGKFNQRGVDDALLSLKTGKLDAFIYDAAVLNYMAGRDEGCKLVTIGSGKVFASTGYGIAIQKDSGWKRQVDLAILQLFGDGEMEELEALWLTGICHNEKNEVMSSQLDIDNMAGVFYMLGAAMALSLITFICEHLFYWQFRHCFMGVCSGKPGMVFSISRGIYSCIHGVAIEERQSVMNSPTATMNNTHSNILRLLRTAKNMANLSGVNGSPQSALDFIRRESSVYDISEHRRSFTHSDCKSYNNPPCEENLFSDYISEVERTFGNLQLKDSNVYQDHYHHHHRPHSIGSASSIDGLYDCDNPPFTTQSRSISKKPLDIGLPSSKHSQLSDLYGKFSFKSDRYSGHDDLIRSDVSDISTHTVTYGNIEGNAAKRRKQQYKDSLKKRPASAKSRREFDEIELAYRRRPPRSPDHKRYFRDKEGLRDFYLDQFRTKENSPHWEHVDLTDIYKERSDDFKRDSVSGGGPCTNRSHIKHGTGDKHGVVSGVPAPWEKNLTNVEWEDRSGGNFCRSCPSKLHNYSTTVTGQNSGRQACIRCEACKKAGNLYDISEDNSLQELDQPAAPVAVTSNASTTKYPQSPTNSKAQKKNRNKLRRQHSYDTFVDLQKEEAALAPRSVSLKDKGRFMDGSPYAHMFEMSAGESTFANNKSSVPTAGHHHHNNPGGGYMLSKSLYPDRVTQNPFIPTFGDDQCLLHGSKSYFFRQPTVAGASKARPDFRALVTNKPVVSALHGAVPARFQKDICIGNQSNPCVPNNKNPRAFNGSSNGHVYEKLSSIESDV

## O=C(Cn1ccc2ccc(-c3ccc(Cl)c(C(F)(F)F)c3)cc2c1=O)N1CCCC1 [Example 310, 7-(4-chloro-3-(trifluoromethyl)phenyl)-2-(2-oxo-2-(pyrrolidin-1-yl)ethyl)isoquinolin-1(2H)-one]
  Response Recovered (%): 3%

## CC1(F)CN(C(=O)Cn2ccc3scc(-c4ccc(Cl)c(C(F)(F)F)c4)c3c2=O)C1 [Example 21, 3-(4-chloro-3-(trifluoromethyl)phenyl)-5-(2-(3-fluoro-3-methylazetidin-1-yl)-2-oxoethyl)thieno[3,2-c]pyridin-4(5H)-one]
  Response Recovered (%): 120%

## O=C(Cn1ccc2c(c(-c3ccc(F)c(C(F)(F)F)c3)cn2CO)c1=O)N1CCC(F)C1 (centres unmarked) [Example 260, 3-(4-fluoro-3-(trifluoromethyl)phenyl)-5-(2-(3-fluoropyrrolidin-1-yl)-2-oxoethyl)-1-(hydroxymethyl)-1H-pyrrolo[3,2-c]pyridin-4(5H)-one]
  Response Recovered (%): 68%

## CC1(F)CN(C(=O)Cn2ccn3c(C4CC4)nc(-c4cnc(Cl)c(Cl)c4)c3c2=O)C1 [Example 437, 3-cyclopropyl-1-(5,6-dichloropyridin-3-yl)-7-(2-(3-fluoro-3-methylazetidin-1-yl)-2-oxoethyl)imidazo[1,5-a]pyrazin-8(7H)-one]
  Response Recovered (%): 65%

## O=C(Cn1ccc2scc(-c3ccc(Cl)c(C(F)(F)F)c3)c2c1=O)N1CC[C@@H](F)C1 [Example 17, (R)-3-(4-chloro-3-(trifluoromethyl)phenyl)-5-(2-(3-fluoropyrrolidin-1-yl)-2-oxoethyl)thieno[3,2-c]pyridin-4(5H)-one]
  Response Recovered (%): 99%

## O=C(Cn1ccc2scc(-c3ccc(Cl)c(Cl)c3)c2c1=O)N1CC[C@@H](F)C1 [Example 29, (R)-3-(3,4-dichlorophenyl)-5-(2-(3-fluoropyrrolidin-1-yl)-2-oxoethyl)thieno[3,2-c]pyridin-4(5H)-one]
  Response Recovered (%): 104%

## CCC1(F)CN(C(=O)Cn2cc(C)n3ccc(-c4cnc(Cl)c(Cl)c4)c3c2=O)C1 [Example 422, 8-(5,6-dichloropyridin-3-yl)-2-(2-(3-ethyl-3-fluoroazetidin-1-yl)-2-oxoethyl)-4-methylpyrrolo[1,2-a]pyrazin-1(2H)-one]
  Response Recovered (%): 29%

## CC1(F)CN(C(=O)Cn2ccc3scc(-c4cnc(C#N)c(Cl)c4)c3c2=O)C1 [Example 136, 3-chloro-5-(5-(2-(3-fluoro-3-methylazetidin-1-yl)-2-oxoethyl)-4-oxo-4,5-dihydrothieno[3,2-c]pyridin-3-yl)picolinonitrile]
  Response Recovered (%): 17%

## CC1(F)CN(C(=O)Cn2cnn3cnc(-c4ccc(Cl)c(Cl)c4)c3c2=O)C1 [Example 425, 5-(3,4-dichlorophenyl)-3-(2-(3-fluoro-3-methylazetidin-1-yl)-2-oxoethyl)imidazo[5,1-f][1,2,4]triazin-4(3H)-one]
  Response Recovered (%): 27%

## O=C(Cn1ccn2ccc(-c3ccc(Cl)c(Cl)c3)c2c1=O)N1CC(F)(CF)C1 [Example 403, 8-(3,4-dichlorophenyl)-2-(2-(3-fluoro-3-(fluoromethyl)azetidin-1-yl)-2-oxoethyl)pyrrolo[1,2-a]pyrazin-1(2H)-one]
  Response Recovered (%): 130%

## O=C(Cn1cnc2csc(-c3ccc(Cl)cc3)c2c1=O)NC1CC1 [Example 346, 2-(5-(4-chlorophenyl)-4-oxothieno[3,4-d]pyrimidin-3(4H)-yl)-N-cyclopropylacetamide]
  Response Recovered (%): 0%

## O=C(Cn1cc(CN2CCC2)c2scc(-c3ccc(F)c(C(F)(F)F)c3)c2c1=O)N1CCC(F)C1 (centres unmarked) [Example 118, 7-(azetidin-1-ylmethyl)-3-(4-fluoro-3-(trifluoromethyl)phenyl)-5-(2-(3-fluoropyrrolidin-1-yl)-2-oxoethyl)thieno[3,2-c]pyridin-4(5H)-one]
  Response Recovered (%): 77%

## O=C(Cn1ccn2ccc(-c3ccc(F)c(Cl)c3)c2c1=O)N1CC(F)(CF)C1 [Example 402, 8-(3-chloro-4-fluorophenyl)-2-(2-(3-fluoro-3-(fluoromethyl)azetidin-1-yl)-2-oxoethyl)pyrrolo[1,2-a]pyrazin-1(2H)-one]
  Response Recovered (%): 130%

## O=C(Cn1ccc2scc(-c3ccc(F)c(C(F)(F)F)c3)c2c1=O)N1CC2(COC2)C1 [Example 69, 3-(4-fluoro-3-(trifluoromethyl)phen-yl)-5-(2-oxo-2-(2-oxa-6-azaspiro[3.3]heptan-6-yl)ethyl)thieno[3,2-c]pyridin-4(5H)-one]
  Response Recovered (%): 16%

## O=C(Cn1ccc2[nH]cc(-c3ccc(Cl)c(C(F)(F)F)c3)c2c1=O)N1CC(F)(F)C1 [Example 212, 3-(4-chloro-3-(trifluoromethyl)phenyl)-5-(2-(3,3-difluoroazetidin-1-yl)-2-oxoethyl)-1H-pyrrolo[3,2-c]pyridin-4(5H)-one]
  Response Recovered (%): 107%

## O=C(Cn1cnc2c(c(-c3ccc(F)c(Cl)c3)cn2CCO)c1=O)N1CCCC1 [Example 195, 5-(3-chloro-4-fluorophenyl)-7-(2-hydroxyethyl)-3-(2-oxo-2-(pyrrolidin-1-yl)ethyl)-3H-pyrrolo[2,3-d]pyrimidin-4(7H)-one]
  Response Recovered (%): 21%

## O=C(Cn1ccc2[nH]cc(-c3ccc(Cl)c(C(F)(F)F)c3)c2c1=O)N1CCC(F)C1 (centres unmarked) [Example 203, 3-(4-chloro-3-(trifluoromethyl)phenyl)-5-(2-(3-fluoropyrrolidin-1-yl)-2-oxoethyl)-1H-pyrrolo[3,2-c]pyridin-4(5H)-one]
  Response Recovered (%): 42%

## O=C(Cn1ccc2scc(-c3ccc(F)c(C(F)(F)F)c3)c2c1=O)N1CC(F)(C2CC2)C1 [Example 45, 5-(2-(3-cyclopropyl-3-fluoroazetidin-1-yl)-2-oxoethyl)-3-(4-fluoro-3-(trifluoromethyl)phen-yl)thieno[3,2-c]pyridin-4(5H)-one]
  Response Recovered (%): 12%

## O=C(Cn1ccc2cccc(-c3ccc(Cl)c(Cl)c3)c2c1=O)N1CCCC1 [Example 308]
  Response Recovered (%): 78%

## CCn1cc(-c2ccc(F)c(Cl)c2)c2c(=O)n(CC(=O)N3CCCC3)cnc21 [Example 160, 5-(3-chloro-4-fluorophenyl)-7-ethyl-3-(2-oxo-2-(pyrrolidin-1-yl)ethyl)-3H-pyrrolo[2,3-d]pyrimidin-4(7H)-one]
  Response Recovered (%): 42%

## CCC1(F)CN(C(=O)Cn2ccn3c(C)nc(-c4ccc(F)c(Cl)c4)c3c2=O)C1 [Example 431, 1-(3-chloro-4-fluorophenyl)-7-(2-(3-ethyl-3-fluoroazetidin-1-yl)-2-oxoethyl)-3-methylimidazo[1,5-a]pyrazin-8(7H)-one]
  Response Recovered (%): −3.9%

## CC1(F)CN(C(=O)Cn2ccc3c(c(-c4ccc(Cl)c(Cl)c4)cn3C3CC3)c2=O)C1 [Example 288, 1-cyclopropyl-3-(3,4-dichlorophenyl)-5-(2-(3-fluoro-3-methylazetidin-1-yl)-2-oxoethyl)-1H-pyrrolo[3,2-c]pyridin-4(5H)one]
  Response Recovered (%): 130%

## O=C(Cn1cnc2csc(-c3ccc(Cl)cc3)c2c1=O)N1CCCCC1 [Example 350, 5-(4-chlorophenyl)-3-(2-oxo-2-(piperidin-1-yl)ethyl)thieno[3,4-d]pyrimidin-4(3H)-one]
  Response Recovered (%): 0%

## O=C(Cn1ccc2c(c(-c3ccc(F)c(C(F)(F)F)c3)cn2CCO)c1=O)N1CCC(F)C1 (centres unmarked) [Example 256, 3-(4-fluoro-3-(trifluoromethyl)phenyl)-5-(2-(3-fluoropyrrolidin-1-yl)-2-oxoethyl)-1-(2-hydroxyethyl)-1H-pyrrolo[3,2-c]pyridin-4(5H)-one]
  Response Recovered (%): 54%

## N=C(NO)c1cn(CC(=O)N2CCCC2)c(=O)c2c(-c3ccc(F)c(C(F)(F)F)c3)csc12 [Example 108, 3-(4-fluoro-3-(trifluoromethyl)phenyl)-N-hydroxy-4-oxo-5-(2-oxo-2-(pyrrolidin-1-yl)ethyl)-4,5-dihydrothieno[3,2-c]pyridine-7-carboximidamide]
  Response Recovered (%): 64%

## O=C(Cn1cnc2[nH]cc(-c3cnc(Cl)c(Cl)c3)c2c1=O)N1CCC(F)C1 (centres unmarked) [Example 180, 5-(5,6-dichloropyridin-3-yl)-3-(2-(3-fluoropyrrolidin-1-yl)-2-oxoethyl)-3H-pyrrolo[2,3-d]pyrimidin-4(7H)-one]
  Response Recovered (%): 15%

## Cc1cc(-c2csc3ccn(CC(=O)N4CC(C)(F)C4)c(=O)c23)ccc1Cl [Example 22, 3-(4-chloro-3-methylphenyl)-5-(2-(3-fluoro-3-mehtylazetidin-1-yl)-2-oxoethyl)thieno[3,2-c]pyridin-4(5H)-one]
  Response Recovered (%): 130%

## Cc1cn(CC(=O)N2CC(F)(CF)C2)c(=O)c2c(-c3cnc(Cl)c(Cl)c3)ccn12 [Example 421, 8-(5,6-dichloropyridin-3-yl)-2-(2-(3-fluoro-3-(fluoromethyl)azetidin-1-yl)-2-oxoethyl)-4-methylpyrrolo[1,2-a]pyrazin-1(2H)-one]
  Response Recovered (%): 92%

## O=C(Cn1cc(CN2CCC2)c2scc(-c3ccc(F)c(Cl)c3)c2c1=O)N1CCC(F)C1 (centres unmarked) [Example 124, 7-(azetidin-1-ylmethyl)-3-(3-chloro-4-fluorophenyl)-5-(2-(3-fluoropyrrolidin-1-yl)-2-oxoethyl)thieno[3,2-c]pyridin-4(5H)-one]
  Response Recovered (%): 76%

## O=C(Cn1cnc2csc(-c3ccc(Cl)cc3)c2c1=O)N1CCCC1C(F)(F)F (centres unmarked) [Example 355, 5-(4-chlorophenyl)-3-(2-oxo-2-(2-(trifluoromethyl)pyrrolidin-1-yl)ethyl)thieno[3,4-d]pyrimidin-4(3H)-one]
  Response Recovered (%): 10%

## O=C(Cn1cnc2[nH]cc(-c3ccc(Cl)c(C(F)(F)F)c3)c2c1=O)N1CC(F)(F)C1 [Example 166, 5-(4-chloro-3-(trifluoromethyl)phenyl)-3-(2-(3,3-difluoroazetidin-1-yl)-2-oxoethyl)-3H-pyrrolo[2,3-d]pyrimidin-4(7H)-one]
  Response Recovered (%): 65%

## O=C(Cn1ccn2ncc(-c3ccc(F)c(C(F)(F)F)c3)c2c1=O)N1CCC(F)C1 (centres unmarked) [Example 321, 3-(4-fluoro-3-(trifluoromethyl)phenyl)-5-(2-(3-fluoropyrrolidin-1-yl)-2-oxoethyl)pyrazolo[1,5-a]pyrazin-4(5H)-one]
  Response Recovered (%): 46%
